Consider 19 molecules from US9040526B2, “Benzylpyrrolidinone derivatives as modulators of chemokine receptor activity” (Bristol-Myers Squibb Company, priority 2010, dated 2015).

The assay deals with T1, CCR2 receptor (Homo sapiens, UniProt P41597).
T1 construct: THP-1 human monocytic leukemic cell line, which expresses endogenous CCR2; endogenous in cells; host or cells: THP-1 human monocytic leukemic cell line (whole cells)
T1 sequence (P41597 1-360 isoform P41597-2): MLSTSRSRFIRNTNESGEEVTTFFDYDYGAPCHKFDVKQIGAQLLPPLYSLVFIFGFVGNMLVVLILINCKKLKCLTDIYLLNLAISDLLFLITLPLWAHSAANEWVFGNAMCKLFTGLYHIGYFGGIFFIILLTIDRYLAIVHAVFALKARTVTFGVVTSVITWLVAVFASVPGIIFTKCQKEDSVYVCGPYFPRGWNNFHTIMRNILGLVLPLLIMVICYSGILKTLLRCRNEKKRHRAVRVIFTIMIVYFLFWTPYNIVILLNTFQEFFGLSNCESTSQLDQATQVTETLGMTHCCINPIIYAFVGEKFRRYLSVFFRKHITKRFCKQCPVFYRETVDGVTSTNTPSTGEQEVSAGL
The experiment in a line: THP-1 monocytic cell binding: whole cell-based radioligand competition assay (125I-human MCP-1). The following applies: THP-1 cells expressing endogenous CCR2; 125I-MCP-1 tracer 0.2 nM; n = 1 unless otherwise noted. The method, then:
THP-1 Monocytic Cell Binding: Whole Cell-Based Assay
The human CCR2 binding assay was also established with the THP-1 human monocytic leukemic cell line, which expresses endogenous CCR2, using ^125I-human MCP-1 as the tracer ligand. Radioligand competition binding assays were used for assessment of binding affinity of test compounds to the CCR2 receptor. For radioligand competition studies, 100 μl containing 2.5×10^5 THP-1 cells/well (in assay buffer containing 50 mM HEPES, pH7.4, 5 mM MgCl2, 1 mM CaCl2 and 0.5% BSA) were added to 96-well assay plates containing the test compounds in 3-fold serial dilution, with final concentrations ranging from 5 μM to 100 pM. Subsequently, 50 μl ^125I-MCP-1 radioligand at a final concentration of 0.2 nM in assay buffer were added to the reaction. After a 90 minute incubation period at room temperature, the binding reaction was terminated by harvesting on GF/B filter plates (PerkinElmer Cat. No. 6005177) followed by washing with ice-cold wash buffer (50 mM HEPES, pH 7.4, 0.1% BSA, 0.5 M NaCl) to remove unbound ligand. After washing, the plate was dried for 45 minutes at 60° C. followed by addition of 40 μl MicroScint 20 scintillation fluid, sealed and analyzed by the Packard TopCount reader. Non-specific binding was determined in the presence of 10 μM (a molar excess of 5000 fold) of an in-house CCR2 small molecule antagonist (CCR2 IC50=2 nM). Specific binding of ^125I-MCP-1 was calculated as the difference between total and non-specific binding. The competition data was plotted as a percentage inhibition of radioligand specific bound in the absence of test compound (percent of total signal). After correcting for non-specific binding, IC50 values were determined. The IC50 is defined as the concentration of test compound required to reduce ^125-MCP-1 specific binding by 50% and was calculated using the four parameter logistic equation to fit the normalized data.
Compounds of the present invention were tested in the THP-1 monocytic binding assay described above and the results shown in Table 3 below were obtained.

The term Ki denotes the equilibrium dissociation constant of an inhibitor or competing ligand from its target. A high value points to weaker binding.

In the case of `CC(C)C1(CCNC2CCC(O)CC2)CC2Oc3ccc(C(F)(F)F)cc3CN2C1=O` (mixture of isomers) [Example 3i, 2-(2-((1r,4r)-4-hydroxycyclohexylamino)ethyl)-2-isopropyl-7-(trifluoromethyl)-2,3,3a,9-tetrahydro-1H-benzo[e] pyrrolo[2,1-b][1,3]oxazin-1-one], the inhibition constant Ki worked out at 0.639 µM.
The same measure for `CC(C)C1(CCN2CCC(c3ccccc3)CC2)CC2Oc3ccc(C(F)(F)F)cc3CN2C1=O` (single isomer, unassigned) [3b, diastereomer 1]: 0.934 µM.
The same measure for `CC(C)C1(CCN2CCC(c3ccccc3)CC2)CC2Oc3ccc(C(F)(F)F)cc3CN2C1=O` (single isomer, unassigned) [3b, diastereomer 2]: 0.0378 µM.
For `CC(C)C1(CCN2CCC3(C=Cc4ccccc43)CC2)CC2Oc3ccc(C(F)(F)F)cc3CN2C1=O` (single isomer, unassigned) [3f, diastereomer 1] the value was 0.0454 µM.
Molecule `CC(C)C1(CCN2CCC3(C=Cc4ccccc43)CC2)CC2Oc3ccc(C(F)(F)F)cc3CN2C1=O` (single isomer, unassigned) [3f, diastereomer 2] returned a Ki of 0.011 µM.
For `CC(C)C1(CCNC2CCOCC2)CC2Oc3ccc(C(F)(F)F)cc3CN2C1=O` (single isomer, unassigned) [3h, diastereomer 2] the value was 0.495 µM.
For `CC(C)C1(CCN2CCCCC2)CCN(Cc2cc(C(F)(F)F)cc(C(F)(F)F)c2)C1=O` (stereo not shown) [Example 1a, 1-(3,5-bis(trifluoromethyl)benzyl)-3-isopropyl-3-(2-(piperidin-1-yl)ethyl)pyrrolidin-2-one], the affinity, expressed as Ki, was 0.983 µM.
The same measure for `CC(C)C1(CCN2CCC(c3ccccc3)CC2)CCN(Cc2cc(C(F)(F)F)cc(C(F)(F)F)c2)C1=O` (stereo not shown) [Example 1b, 1-(3,5-bis(trifluoromethyl)benzyl)-3-isopropyl-3-(2-(4-phenylpiperidin-1-yl)ethyl)pyrrolidin-2-one]: 0.933 µM.
For `CC(C)C1(CCN2CC[C@@]3(C=Cc4ccccc43)[C@@H](C)C2)CCN(Cc2cc(C(F)(F)F)cc(C(F)(F)F)c2)C1=O` (stereo partly drawn) [Example 1c, 1-(3,5-bis(trifluoromethyl)benzyl)-3-isopropyl-3-(2-((1R,3′R)-3′-methylspiro[indene-1,4′-piperidine]-1′-yl)ethyl) pyrrolidin-2-one] the value was 0.736 µM; for `CC(C)C1(CCCN2CCC(c3ccccc3)CC2)CCN(Cc2cc(C(F)(F)F)cc(C(F)(F)F)c2)C1=O` (stereo not shown) [Example 2a, 1-(3,5-bis(trifluoromethyl)benzyl)-3-isopropyl-3-(3-(4-phenylpiperidin-1-yl)propyl)pyrrolidin-2-one], 3.51 µM.
For `CC(C)C1(CCNC(C)(C)C)CC2Oc3ccc(C(F)(F)F)cc3CN2C1=O` (stereo not shown) [Example 3a, 2-(2-(tert-butylamino)ethyl)-2-isopropyl-7-(trifluoromethyl)-2,3,3,a,9-tetrahydro-1H-benzo[e]pyrrolo[2,1-b][1,3]oxazin-1-one] the value was 2.54 µM; for `CC(C)C1(CCN2CCC(c3cccc(C(=O)O)c3)CC2)CC2Oc3ccc(C(F)(F)F)cc3CN2C1=O` (stereo not shown) [Example 3c, 3-(1-(2-(2-isopropyl-1-oxo-7-(trifluoromethyl)-2,3,3a,9-tetrahydro-1H-benzo[e]pyrrolo[2,1-b][1,3]oxazin-2-yl)ethyl)piperidin-4-yl)benzoic acid], 2.61 µM; for `CC(C)C1(CCN2CCC(n3c(=O)[nH]c4ccccc43)CC2)CC2Oc3ccc(C(F)(F)F)cc3CN2C1=O` (stereo not shown) [Example 3j, 2-isopropyl-2-(2-(4-(2-oxo-2,3-dihydro-1H-benzo[d]imidazol-1-yl)piperidin-1-yl)ethyl)-7-(trifluoromethyl)-2,3,3a,9-tetrahydro-1H-benzo[e]pyrrolo[2,1-b][1,3] oxazin-1-one], 1.28 µM.
`CC(C)C1(CCN2CCN(c3ccc(F)cc3)CC2)CC2Oc3ccc(C(F)(F)F)cc3CN2C1=O` (stereo not shown) [Example 3k, 2-(2-(4-(4-fluorophenyl)piperazin-1-yl)ethyl)-2-isopropyl-7-(trifluoromethyl)-2,3,3a,9-tetrahydro-1H-benzo[e]pyrrolo[2,1-b][1,3] oxazin-1-one] showed a Ki of 1.41 µM.
For `CC(C)C1(CCN2CCN(C)CC2)CC2Oc3ccc(C(F)(F)F)cc3CN2C1=O` (stereo not shown) [Example 3l, 2-isopropyl-2-(2-(4-methylpiperazin-1-yl)ethyl)-7-(trifluoromethyl)-2,3,3a,9-tetrahydro-1H-benzo[e]pyrrolo[2,1-b][1,3]oxazin-1-one] the value was 7.91 µM; for `CC(C)C1(CCN2CCC(O)(c3ccccc3)CC2)CC2Oc3ccc(C(F)(F)F)cc3CN2C1=O` (stereo not shown) [Example 3m, 2-(2-(4-hydroxy-4-phenylpiperidin-1-yl)ethyl)-2-isopropyl-7-(trifluoromethyl)-2,3,3a,9-tetrahydro-1H-benzo[e]pyrrolo[2,1-b][1,3]oxazin-1-one], 0.153 µM.
In turn, `CC(C)C1(CCN2CCC(Cc3ccccc3)CC2)CC2Oc3ccc(C(F)(F)F)cc3CN2C1=O` (stereo not shown) [Example 3n, 2-(2-(4-benzylpiperidin-1-yl)ethyl)-2-isopropyl-7-(trifluoromethyl)-2,3,3a,9-tetrahydro-1H-benzo[e] pyrrolo[2,1-b][1,3]oxazin-1-one] gave a Ki of 1.49 µM.
For `CC(C)C1(CCN2CCc3ccccc3C2)CC2Oc3ccc(C(F)(F)F)cc3CN2C1=O` (stereo not shown) [Example 3o, 2-(2-(3,4-dihydroisoquinolin-2(1H)-yl)ethyl)-2-isopropyl-7-(trifluoromethyl)-2,3,3a,9-tetrahydro-1H-benzo[e] pyrrolo[2,1-b][1,3]oxazin-1-one] the value was 3.89 µM; for `CC(C)C1(CCN2CCC(c3ccccc3)C2)CC2Oc3ccc(C(F)(F)F)cc3CN2C1=O` (stereo not shown) [Example 3p, 2-isopropyl-2-(2-(3-phenylpyrrolidin-1-yl)ethyl)-7-(trifluoromethyl)-2,3,3a,9-tetrahydro-1H-benzo[e] pyrrolo[2,1-b][1,3] oxazin-1-one], 0.023 µM.
